# In patent US10927123B2, “Modulators of the beta-3 adrenergic receptor useful for the treatment or prevention of disorders related thereto” (Arena Pharmaceuticals, Inc., priority 2016, dated 2021):
# Target: Beta-3 Adrenergic Receptor (Homo sapiens (Human), UniProt P13945)
# Experiment: HTRF cAMP antagonist assay (IC50 determination)
# Format: cell-based
# Settings: CHO-K1 cells stably expressing recombinant receptor; antagonism of isoproterenol at EC90; cAMP readout
# Procedure, shortened: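 CHO-K1 cells stably expressing the recombinant receptor were preincubated with compound (10-point, 5-fold dilutions; top final typically 10 or 100 μM) in PBS with 1 mM IBMX, then stimulated with isoproterenol at its EC90 for 1 h at room temperature. cAMP was read by HTRF against an on-plate standard curve.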
# Sequence of Beta-3 Adrenergic Receptor (P13945 whole entry, species assumed): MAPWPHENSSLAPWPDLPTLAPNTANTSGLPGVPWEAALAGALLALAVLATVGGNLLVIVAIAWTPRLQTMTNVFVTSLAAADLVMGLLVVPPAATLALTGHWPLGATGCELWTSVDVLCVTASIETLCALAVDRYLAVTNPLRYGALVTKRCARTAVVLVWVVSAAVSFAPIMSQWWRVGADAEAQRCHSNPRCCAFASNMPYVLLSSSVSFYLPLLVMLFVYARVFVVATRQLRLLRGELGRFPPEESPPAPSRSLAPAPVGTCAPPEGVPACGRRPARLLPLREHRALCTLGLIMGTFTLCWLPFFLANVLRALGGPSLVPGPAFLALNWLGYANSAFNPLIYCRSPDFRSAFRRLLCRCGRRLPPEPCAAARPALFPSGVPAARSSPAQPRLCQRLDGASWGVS
row,SMILES,IC50 [nM]
1,"C[C@@H]1CN(C)c2cc(S(=O)(=O)N3CCC4(CC3)C[C@@H](NC[C@H](O)COc3cccc(S(=O)(=O)C5CC5)c3)CO4)cnc2O1 [Compound 305, (S)-1-(3-(cyclopropylsulfonyl)phenoxy)-3-((R)-8-((R)-1,3-dimethyl-2,3-dihydro-1H-pyrido[2,3-b][1,4]oxazin-7-ylsulfonyl)-1-oxa-8-azaspiro[4.5]decan-3-ylamino)propan-2-ol]",17.1
2,"CS(=O)(=O)c1cccc(OC[C@@H](O)CNC2COC3(CCN(S(=O)(=O)c4cccc(-c5cncnc5)c4)CC3)C2)c1 (stereo partly drawn) [Compound 71, (2S)-1-(3-(methylsulfonyl)phenoxy)-3-(8-(3-(pyrimidin-5-yl)phenylsulfonyl)-1-oxa-8-azaspiro[4.5]decan-3-ylamino)propan-2-ol]",39
3,"O=S(=O)(CCO)c1cccc(OC[C@@H](O)CNC2COC3(CCN(S(=O)(=O)c4ccc5ccccc5c4)CC3)C2)c1 (stereo partly drawn) [Compound 5, (2S)-1-(3-(2-hydroxyethylsulfonyl)phenoxy)-3-(8-(naphthalen-2-ylsulfonyl)-1-oxa-8-azaspiro[4.5]decan-3-ylamino)propan-2-ol]",33.3
4,"NCc1ccc(-c2cncc(S(=O)(=O)N3CCC4(CC3)C[C@@H](NC[C@H](O)COc3cccc(S(=O)(=O)CCO)c3)CO4)c2)cc1 [Compound 89, (S)-1-((R)-8-(5-(4-(aminomethyl)phenyl)pyridin-3-ylsulfonyl)-1-oxa-8-azaspiro[4.5]decan-3-ylamino)-3-(3-(2-hydroxyethylsulfonyl)phenoxy)propan-2-ol]",110
5,"CN1CCOc2cc(C(=O)N3CCC4(CC3)CC(NC[C@H](O)COc3cccc(S(C)(=O)=O)c3)CO4)ccc21 (stereo partly drawn) [Compound 64, (3-((S)-2-hydroxy-3-(3-(methylsulfonyl)phenoxy)propylamino)-1-oxa-8-azaspiro[4.5]decan-8-yl)(4-methyl-3,4-dihydro-2H-benzo[6][1,4]oxazin-7-yl)methanone]",922
6,"CS(=O)(=O)c1cccc(OC[C@@H](O)CN[C@H]2COC3(CCN(S(=O)(=O)c4ccc5ncccc5c4)CC3)C2)c1 [Compound 111, (S)-1-(3-(methylsulfonyl)phenoxy)-3-((R)-8-(quinolin-6-ylsulfonyl)-1-oxa-8-azaspiro[4.5]decan-3-ylamino)propan-2-ol]",31.1
7,"CC(=O)NCCc1ccc(-c2cccc(S(=O)(=O)N3CCC4(CC3)C[C@@H](NC[C@H](O)COc3cccc(S(=O)(=O)C5(CO)CC5)c3)CO4)c2)cc1 [Compound 191, N-(2-(3′-((R)-3-((S)-2-hydroxy-3-(3-(1-(hydroxymethyl)cyclopropylsulfonyl)phenoxy)propylamino)-1-oxa-8-azaspiro[4.5]decan-8-ylsulfonyl)biphenyl-4-yl)ethyl)acetamide]",440
8,"Cc1ccnc(-c2cccc(S(=O)(=O)N3CCC4(CC3)C[C@@H](NC[C@H](O)COc3cccc(S(=O)(=O)CCO)c3)CO4)c2)c1 [Compound 129, (S)-1-(3-(2-hydroxyethylsulfonyl)phenoxy)-3-((R)-8-(3-(4-methylpyridin-2-yl)phenylsulfonyl)-1-oxa-8-azaspiro[4.5]decan-3-ylamino)propan-2-ol]",485
9,"CC(C)CS(=O)(=O)c1cccc(OC[C@@H](O)CN[C@H]2COC3(CCN(S(=O)(=O)c4ccc5ncccc5c4)CC3)C2)c1 [Compound 116, (S)-1-(3-(isobutylsulfonyl)phenoxy)-3-((R)-8-(quinolin-6-ylsulfonyl)-1-oxa-8-azaspiro[4.5]decan-3-ylamino)propan-2-ol]",320
10,"O=S(=O)(c1cccnc1)N1CCC2(CC1)C[C@@H](NC[C@H](O)COc1cccc(S(=O)(=O)C3(CO)CC3)c1)CO2 [Compound 195, (S)-1-(3-(1-(hydroxymethyl)cyclopropylsulfonyl)phenoxy)-3-((R)-8-(pyridin-3-ylsulfonyl)-1-oxa-8-azaspiro[4.5]decan-3-ylamino)propan-2-ol]",1530
11,"CS(=O)(=O)c1cccc(OC[C@@H](O)CNC2COC3(CCN(S(=O)(=O)c4cccc(-c5cccnc5)c4)CC3)C2)c1 (stereo partly drawn) [Compound 63, (2S)-1-(3-(methylsulfonyl)phenoxy)-3-(8-(3-(pyridin-3-yl)phenylsulfonyl)-1-oxa-8-azaspiro[4.5]decan-3-ylamino)propan-2-ol]",17.2
12,"COc1ccc(S(=O)(=O)N2CCC3(CC2)C[C@H](NC[C@H](O)COc2cccc(S(=O)(=O)C(C)(C)CO)c2)CO3)cc1-c1ccc(CN)cc1 [Compound 223, 2-(3-((S)-3-((S)-8-(4′-(aminomethyl)-6-methoxybiphenyl-3-ylsulfonyl)-1-oxa-8-azaspiro[4.5]decan-3-ylamino)-2-hydroxypropoxy)phenylsulfonyl)-2-methylpropan-1-ol]",83.6
13,"CCOc1ccc(-c2ccc(CN)cc2)cc1S(=O)(=O)N1CCC2(CC1)C[C@H](NC[C@H](O)COc1cccc(S(=O)(=O)C(C)(C)CO)c1)CO2 [Compound 187, 2-(3-((S)-3-((S)-8-(4′-(aminomethyl)-4-ethoxybiphenyl-3-ylsulfonyl)-1-oxa-8-azaspiro[4.5]decan-3-ylamino)-2-hydroxypropoxy)phenylsulfonyl)-2-methylpropan-1-ol]",33.4
14,"CCOc1ccc(-c2ccc(CN)cc2)cc1S(=O)(=O)N1CCC2(CC1)C[C@H](NC[C@H](O)COc1cccc(S(C)(=O)=O)c1)CO2 [Compound 231, (S)-1-((S)-8-(4′-(aminomethyl)-4-ethoxybiphenyl-3-ylsulfonyl)-1-oxa-8-azaspiro[4.5]decan-3-ylamino)-3-(3-(methylsulfonyl)phenoxy)propan-2-ol]",19.6
15,"CCS(=O)(=O)c1cccc(OC[C@@H](O)CN[C@@H]2COC3(CCN(S(=O)(=O)c4ccc(OC)c(-c5ccc(C6(N)CC6)cc5)c4)CC3)C2)c1 [Compound 261, (S)-1-((S)-8-(4′-(1-aminocyclopropyl)-6-methoxybiphenyl-3-ylsulfonyl)-1-oxa-8-azaspiro[4.5]decan-3-ylamino)-3-(3-(ethylsulfonyl)phenoxy)propan-2-ol]",38.8
16,"CCOC(=O)C(C)(C)S(=O)(=O)c1cccc(OC[C@@H](O)CN[C@H]2COC3(CCN(S(=O)(=O)c4cnc5ccccc5c4)CC3)C2)c1 [Compound 145, ethyl 2-(3-((S)-2-hydroxy-3-((R)-8-(quinolin-3-ylsulfonyl)-1-oxa-8-azaspiro[4.5]decan-3-ylamino)propoxy)phenylsulfonyl)-2-methylpropanoate]",81.9
17,"COCCNCc1ccc(-c2cccc(S(=O)(=O)N3CCC4(CC3)C[C@H](NC[C@H](O)COc3cccc(S(=O)(=O)C5(CO)CC5)c3)CO4)c2)cc1 [Compound 247, (S)-1-(3-(1-(hydroxymethyl)cyclopropylsulfonyl)phenoxy)-3-((S)-8-(4′-((2-methoxyethylamino)methyl)biphenyl-3-ylsulfonyl)-1-oxa-8-azaspiro[4.5]decan-3-ylamino)propan-2-ol]",33.5
18,"COCS(=O)(=O)c1cccc(OC[C@@H](O)CN[C@H]2COC3(CCN(S(=O)(=O)c4ccc5ncccc5c4)CC3)C2)c1 [Compound 131, (S)-1-(3-(methoxymethylsulfonyl)phenoxy)-3-((R)-8-(quinolin-6-ylsulfonyl)-1-oxa-8-azaspiro[4.5]decan-3-ylamino)propan-2-ol]",23.7
19,"Cn1cc(-c2cccc(S(=O)(=O)N3CCC4(CC3)CC(NC[C@H](O)COc3cccc(S(C)(=O)=O)c3)CO4)c2)cn1 (stereo partly drawn) [Compound 40, (2S)-1-(8-(3-(1-methyl-1H-pyrazol-4-yl)phenylsulfonyl)-1-oxa-8-azaspiro[4.5]decan-3-ylamino)-3-(3-(methylsulfonyl)phenoxy)propan-2-ol]",20.3
20,"CCn1cc(S(=O)(=O)N2CCC3(CC2)C[C@@H](NC[C@H](O)COc2cccc(S(=O)(=O)C4CC4)c2)CO3)c(=O)c2ccccc21 [Compound 297, 3-((R)-3-((S)-3-(3-(cyclopropylsulfonyl)phenoxy)-2-hydroxypropylamino)-1-oxa-8-azaspiro[4.5]decan-8-ylsulfonyl)-1-ethylquinolin-4(1H)-one]",26.5
21,"CS(=O)(=O)c1cccc(OC[C@@H](O)CNC2COC3(CCN(S(=O)(=O)c4ccccc4)CC3)C2)c1 (stereo partly drawn) [Compound 47, (2S)-1-(3-(methylsulfonyl)phenoxy)-3-(8-(phenylsulfonyl)-1-oxa-8-azaspiro[4.5]decan-3-ylamino)propan-2-ol]",82.1
22,"CS(=O)(=O)c1cccc(OC[C@@H](O)CNC2COC3(CCN(S(=O)(=O)c4ccc5[nH]ccc5c4)CC3)C2)c1 (stereo partly drawn) [Compound 62, (2S)-1-(8-(1H-indol-5-ylsulfonyl)-1-oxa-8-azaspiro[4.5]decan-3-ylamino)-3-(3-(methylsulfonyl)phenoxy)propan-2-ol]",24.5
23,"COc1ccc(S(=O)(=O)N2CCC3(CC2)C[C@@H](NC[C@H](O)COc2cccc(S(=O)(=O)C4CC4)c2)CO3)cc1-c1ccc(C2(N)CC2)cc1 [Compound 255, (S)-1-((R)-8-(4′-(1-aminocyclopropyl)-6-methoxybiphenyl-3-ylsulfonyl)-1-oxa-8-azaspiro[4.5]decan-3-ylamino)-3-(3-(cyclopropylsulfonyl)phenoxy)propan-2-ol]",27.9
24,"COCCCS(=O)(=O)c1cccc(OC[C@@H](O)CN[C@H]2COC3(CCN(S(=O)(=O)c4ccc5ncccc5c4)CC3)C2)c1 [Compound 132, (S)-1-(3-(3-methoxypropylsulfonyl)phenoxy)-3-((R)-8-(quinolin-6-ylsulfonyl)-1-oxa-8-azaspiro[4.5]decan-3-ylamino)propan-2-ol]",739
25,"CCCn1cc(-c2cccc(S(=O)(=O)N3CCC4(CC3)CC(NC[C@H](O)COc3cccc(S(C)(=O)=O)c3)CO4)c2)cn1 (stereo partly drawn) [Compound 38, (2S)-1-(3-(methylsulfonyl)phenoxy)-3-(8-(3-(1-propyl-1H-pyrazol-4-yl)phenylsulfonyl)-1-oxa-8-azaspiro[4.5]decan-3-ylamino)propan-2-ol]",3.99
26,"O=S(=O)(Cc1ccccc1)c1cccc(OC[C@@H](O)CNC2COC3(CCN(S(=O)(=O)c4ccc5ccccc5c4)CC3)C2)c1 (stereo partly drawn) [Compound 20, (2S)-1-(3-(benzylsulfonyl)phenoxy)-3-(8-(naphthalen-2-ylsulfonyl)-1-oxa-8-azaspiro[4.5]decan-3-ylamino)propan-2-ol]",76.2
